Results taken from patent publication US11241437B2, “Heterocyclic compounds, preparation methods and uses thereof” (InventisBio Co., Ltd., priority 2019, dated 2022).
Converted amounts (≈) assume the structure as drawn.

What was measured:
Type in all cases: physicochemical
[1] = Manual grinding of Form A and Form B of Compound 2; conditions: ground manually for 5 min
Experimental: About 10-20 mg of Compound 2 in Form A and Form B were ground manually for 5 min, respectively.

[2] = Dynamic moisture sorption analysis (DVS) of Form B of Compound 2
Experimental: Method 2. Used for studies with solid state of Compound 2. Moisture sorption/desorption data was collected on IGAsorp Dynamic Moisture Sorption Analyzer. The sample was placed into a tarred sample chamber and automatically weighed. The sample was dried at 50° C. until the humidity was less than 0.3% and cooled to 25° C. The instrument parameters were set as given below.

[3] = Solid state stability of Form B of Compound 2
Experimental: Method 2. HPLC analysis was performed with an Agilent HPLC 1260 series instrument. A representative HPLC method used for purity, solubility and stability study for Compound 2 analysis.
Solid State Stability of Form B: About 10 mg of Form B was open placed at 40° C./75% RH and 60° C. for 7 days and at 25° C./92.5% RH for 10 days, respectively. Prepare samples in duplicate (n=2) per condition. The solids were analyzed by XRPD and HPLC (only for 40° C./75% RH and 60° C.).

[4] = Solubility of Form A and Form B of Compound 2 in bio-relevant media; conditions: for solubility at 0.5 h / solubility at 2 h / solubility at 24 h: 37 °C, thermodynamic from solid; for Solubility: 37° C.; for solubility at 24 h / Solubility: 24 h
Experimental: Solubility in Bio-relevant Media: Form A and Form B was added into SGF, FeSSIF, FaSSIF and water, respectively. The suspensions were kept shaking at 37° C. with 200 rpm for 24 hours. At 0.5 h, 2 h and 24 h, suspensions were filtered and drug concentrations of filtrates were analyzed by HPLC. pH of filtrates was measured at each time point. The remaining solids at 24 hours were characterized by XRPD.

pKa of Compounds 1 and 2 = assay: pKa of Compounds 1 and 2
[5] = Interconversion studies of solid forms of Compound 1 (slurry); conditions: water or MeOH/water (1/4) at RT and 50° C. for 3 days
Experimental: Interconversion Studies: Equal amounts (˜7 mg) of Form I, II and III were mixed together and then suspended in 0.5 mL of different solvents at room temperature or 50° C., respectively. Residual solids were collected by filtration and characterized at appropriate time. Additionally, Form IV (˜12 mg) was slurried in 0.5 ml, water or MeOH/water (1/4) at RT or 50° C. for 3 days. Residual solids were collected by filtration and analyzed by XRPD.

[6] = Stability studies of Form IV of Compound 1 (HPLC and XRPD)
Experimental: Method 1. a representative HPLC method is shown below, which can be used, for example, to analyze the purity, solubility, and stability of Compound 1 herein.
Stability Studies: Appropriate amounts of Form IV were put at 40° C./75% RH, 60° C. and 25±2° C./92.5% RH conditions for 14 days. Then the sample was tested by HPLC and XRPD to determine the chemical and physical stability.

[7] = Solubility of Compound 1 solid forms in bio-relevant media and water
Experimental: Solubility Studies: Solubility of Form IV was tested in three bio-relevant media (Simulated Gastric Fluid (SGF), Fasted State Simulated Intestinal Fluid (FaSSIF), and Fed State Simulated Intestinal Fluid (FeSSIF)) and water. […] Form IV (˜10 mg) was weighed into 2 mL of four media to make suspensions respectively, and about 10 mg of the amorphous starting material was also added into 2 mL of FaSSIF. Then all suspensions were shaken at 37° C. with 200 rpm for up to 24 hours. At 0.5, 2 and 24 hours, about 0.7 mL of each suspension was filtered. The filtrate was analyzed by HPLC and pH meter, and the residual solids were also checked by XRPD at 24 hours.

[8] = Mechanical stability (grinding) of Form IV of Compound 1; conditions: ground for 2 and 5 min
Experimental: Form IV was also tested for mechanical stability. In this case, appropriate amount of Form IV was ground for 2 and 5 min, and then tested by XRPD to check the crystal form.

[9] = Polymorph characterization summary of Compound 1 forms (form stability)
Description: In the polymorph screening, five XRPD Patterns (FIG. 11) were generated, and four forms were identified including 2 anhydrates and 2 hydrates.

[10] = Dynamic moisture sorption analysis (DVS) of Form IV of Compound 1
Experimental: Method 1. Used for studies with solid state of Compound 1. Moisture sorption/desorption data was collected on a DVS Intrinsic (SMS, UK). The sample was placed into a tared sample chamber and automatically weighed. The sample was dried at 40° C. until the dm/dt was less than 0.002% and cooled to 25° C. Set the instrument parameters as below.

[11] = FaSSIF, pH 6.5, fassif, FaSSIF (pH 6.5)
[12] = FeSSIF, pH 5, fessif, FeSSiF (pH 5.0)
[13] = SGF, pH 1.2, simulated gastric fluid, SGF (pH 1.2)

Compound: C=CC(=O)N1C[C@H](C)N(c2nc(=O)n(-c3c(C4CC4)ncnc3C3CC3)c3nc(-c4c(N)cccc4F)c(F)cc23)C[C@H]1C (single isomer, unassigned) [Form B]
- Crystal form after grinding [1]: crystallinity of Form B became weak
- Crystal form after DVS testing [2]: without changing of crystal form
- Hygroscopicity (DVS) ([2]; 25° C.): slightly hygroscopic
- Water absorbed (DVS) ([2]; at 0-80% RH, 25° C.): ~0.84%
- XRPD ([3]; 25° C./92.5% RH, After 10 d): Unchanged
- Purity-7 d ([3]; 40° C./75% RH): 98.97 Area %
- XRPD ([3]; 40° C./75% RH, After 7 d): Unchanged
- Purity decrease ([3]; 60° C. for 7 days): 0.16%
- Purity-7 d ([3]; 60° C.): 98.82 Area %
- XRPD ([3]; 60° C., After 7 d): Unchanged
- Initial Purity ([3]; initial, before storage): 98.98 Area %
- solubility at 0.5 h [4, 11]: 16 µg/mL (≈ 26.7 µM)
- solubility at 2 h [4, 11]: 51 µg/mL (≈ 85.2 µM)
- solubility at 24 h [4, 11]: 18 µg/mL (≈ 30.1 µM)
- solubility at 0.5 h [4, 12]: 44 µg/mL (≈ 73.5 µM)
- solubility at 2 h [4, 12]: 43 µg/mL (≈ 71.8 µM)
- solubility at 24 h [4, 12]: 37 µg/mL (≈ 61.8 µM)
- Solubility ([4]; SGF (pH 1.2)): 56 µg/mL (≈ 93.5 µM)
- solubility at 0.5 h [4, 13]: 60 µg/mL (≈ 100 µM)
- solubility at 2 h [4, 13]: 58 µg/mL (≈ 96.9 µM)
- XRPD patterns of remaining solids ([4]; SGF, FeSSIF, FaSSIF and water, at 24 hours): unchanged
- Solubility ([4]; Water): 19 µg/mL (≈ 31.7 µM)
- solubility at 0.5 h ([4]; water): 21 µg/mL (≈ 35.1 µM)
- solubility at 2 h ([4]; water): 20 µg/mL (≈ 33.4 µM)

Compound: C=CC(=O)N1C[C@H](C)N(c2nc(=O)n(-c3c(C4CC4)ncnc3C3CC3)c3nc(-c4c(N)cccc4F)c(Cl)cc23)C[C@H]1C [Compound 1]
- pKa (pKa of Compounds 1 and 2): ~3

Compound: C=CC(=O)N1C[C@H](C)N(c2nc(=O)n(-c3c(C4CC4)ncnc3C3CC3)c3nc(-c4c(N)cccc4F)c(F)cc23)C[C@H]1C [Compound 2]
- pKa (pKa of Compounds 1 and 2): ~3

Compound: C=CC(=O)N1C[C@H](C)N(c2nc(=O)n(-c3c(C4CC4)ncnc3C3CC3)c3nc(-c4c(N)cccc4F)c(Cl)cc23)C[C@H]1C [Form IV]
- Form after slurry in aqueous systems (XRPD) [5]: remained unchanged
- Purity ([6]; 40° C./75% RH, 7 D): 98.21 Area %
- Purity ([6]; 40° C./75% RH, 14 D): 98.12 Area %
- Physical stability, XRPD ([6]; 40° C./75% RH, 60° C. and 25° C./92.5% RH, 14 days): XRPD remained unchanged
- Chemical stability, impurities ([6]; 60° C. for 2 weeks): a new impurity was detected
- Purity ([6]; 60° C., 7 D): 97.98 Area %
- Purity ([6]; 60° C., 14 D): 97.88 Area %
- Purity-initial ([6]; initial, before storage): 98.30 Area %
- Solubility ([7]; FaSSIF, 37° C., 0.5 h): 17 µg/mL (≈ 27.6 µM)
- Solubility ([7]; FaSSIF, 37° C., 2 h): 16 µg/mL (≈ 26 µM)
- Solubility ([7]; FaSSIF, 37° C., 24 h): 21 µg/mL (≈ 34.1 µM)
- XRPD-24 h of residual solids ([7]; FaSSIF, 37° C., 24 h): unchanged
- Solubility in FaSSIF ([7]; FaSSIF, time point not stated): 20 µg/mL (≈ 32.5 µM)
- XRPD-24 h of residual solids ([7]; FeSSIF, 37° C., 24 h): unchanged
- solubility at 0.5 h ([7]; FeSSIF, 37 °C, thermodynamic from solid, 0.5 h): 37 µg/mL (≈ 60.2 µM)
- solubility at 2 h ([7]; FeSSIF, 37 °C, thermodynamic from solid, 2 h): 37 µg/mL (≈ 60.2 µM)
- solubility at 24 h ([7]; FeSSIF, 37 °C, thermodynamic from solid, 24 h): 62 µg/mL (≈ 101 µM)
- XRPD-24 h of residual solids ([7]; SGF, 37° C., 24 h): unchanged
- solubility at 0.5 h ([7]; SGF, 37 °C, simulated gastric fluid, thermodynamic from solid, 0.5 h): 36 µg/mL (≈ 58.5 µM)
- solubility at 2 h ([7]; SGF, 37 °C, simulated gastric fluid, thermodynamic from solid, 2 h): 34 µg/mL (≈ 55.3 µM)
- solubility at 24 h ([7]; SGF, 37 °C, simulated gastric fluid, thermodynamic from solid, 24 h): 36 µg/mL (≈ 58.5 µM)
- Solubility ([7]; SGF, FeSSIF, water, 37 °C, thermodynamic from solid, media other than FaSSIF (SGF, FeSSIF, water), read-out: Solubility in other media): < 70 µg/mL
- XRPD-24 h of residual solids ([7]; Water, 37° C., 24 h): unchanged
- solubility at 0.5 h ([7]; water, 37 °C, thermodynamic from solid, 0.5 h): 14 µg/mL (≈ 22.8 µM)
- solubility at 2 h ([7]; water, 37 °C, thermodynamic from solid, 2 h): 11 µg/mL (≈ 17.9 µM)
- solubility at 24 h ([7]; water, 37 °C, thermodynamic from solid, 24 h): 9 µg/mL (≈ 14.6 µM)
- Crystal form after grinding (XRPD) [8]: no new form was generated
- Stability of the solid form [9]: Stable form, slightly
- Crystal form after DVS testing [10]: remained unchanged
- Hygroscopicity (DVS) ([10]; 25° C.): slightly hygroscopic
- Water uptake (DVS) ([10]; at 80% RH, 25° C.): about 1.37%
